Experimental data: patent US20100324279A1, “CRYSTAL FORMS OF 2-[2-(4-CHLOROPHENYL)ETHOXY]ADENOSINE” (priority 2007, published 2010)
≈ marks a conversion by molar mass, not a printed value. Each block holds one molecule with its values, some of them ahead of it.

Assays:
[1] = Moisture sorption/desorption analysis; format: physicochemical; settings: for Weight lost upon desorption: after sorption to 95% RH; for Solid material after moisture sorption identified by XRPD: after sorption/desorption 5 to 95% RH; for Moisture sorption: total weight gain: between 5% and 95% relative humidity (RH); for Hygroscopicity based on the moisture sorption data: exposed to high relative humidity
Procedure: Moisture sorption/desorption analyses may be performed, e.g., on a VTI SGA-100 Vapor Sorption Analyzer Sorption and desorption data are collected, e.g., over a range of 5 to 95% relative humidity (RH) at 10% RH intervals under a nitrogen purge. Samples need not to be dried prior to analysis. Equilibrium criteria used for analysis are, e.g., less than 0.01% weight change in 5 min, with a maximum equilibration time of 3 h if the weight criterion is not met NaCl and PVP may used as calibration standards.

[2] = Desolvation/dehydration studies under various drying conditions (XRPD); format: physicochemical; settings: for Solid form after exposure to ambient conditions: eight days
Procedure: Desolvation studies under various conditions may be performed to investigate the effects of drying conditions on the C-type crystals. […] However, the anhydrous form to which C-type crystals convert may be dependent on the drying conditions and temperature.
Desolvation studies under various conditions may be conducted to investigate the effects of drying conditions on F-type crystals.
Dehydration studies under various conditions are performed to investigate the effects of drying conditions on the I-type crystals.

[3] = Approximate solubilities of A-type crystals of MRE-0094 in test solvents; format: physicochemical; settings: organic solvent or mixture, thermodynamic from solid; PG, RT; agitated two days, calculated from difference between starting and ending weights
[4] = Heat stress studies and variable temperature XRPD; format: physicochemical
Procedure: For heat stress studies, samples of MRE-0094 A-type crystals are heated isothermally at different temperatures to investigate the effect of temperatures on solid state conversions. The samples are heated for up to 15 min. The solid material is allowed to cool before analyzing by XRPD.
(2 min). Variable temperature XRPD (VT-XRPD) may be performed on A-type crystals of MRE-0094 to better understand its thermal behavior. […] The sample remains as B-type crystals up to 165° C. […] It is likely that the melting of B-type crystals, subsequent recrystallization, and final melting of the solid occurs too fast to be captured by VT-XRPD. Based on the VT-XRPD data, the thermal events observed by DSC at approximately 117° C. and 126° C. are due to the solid conversion followed by the subsequent recrystallization to form B-type crystals.

[5] = Approximate solubilities of A-type crystals of MRE-0094 in test solvents; format: physicochemical; settings: thermodynamic from solid
Procedure: Weighed samples of MRE-0094 (typically 30-60 mg) are treated with aliquots of the test solvent. Solvents are either reagent or HPLC grade. The aliquots are usually 200 μL or 500 μL. Between additions the mixtures are sonicated. […] Note that actual solubilities may be greater than those calculated due to the volume of the solvent aliquots or to a slow rate of dissolution. […] The solubilities are reported to the nearest mg/mL.

[6] = Stability to mechanical grinding/milling followed by vapor stress (XRPD); format: physicochemical; settings: ball-milling, then about 97% relative humidity, K2SO4 humidity jar, 1 day
Description: Stability to grinding may be assessed by measurement of an appropriate physical property before and after grinding. Where the physical property remains substantially unchanged substantial stability to grinding is indicated. Suitable physico-chemical properties for measurement include a melting point or DSC analysis, a X-ray diffraction pattern, an infrared absorption spectrum and a Raman spectrum, particularly the X-ray diffraction pattern.
Stability to mechanical grinding/milling may be tested, e.g., by employing a small stainless steel cylinder The cylinder is charged with a weighted amount of a crystal form of MRE-0094 and a stainless steel ball is added, the cylinder is capped and the unit is placed on a Retsch Mixer Mill (Type MM 200) for a total of 30 min at a frequency of 30/s (ball-milling).

diabetic ulcers = settings: healthy BALB/C mice; cited from earlier work
[7] = tested on: neuropathic, diabetic foot ulcers (DFU); assay: Phase I study of topical MRE-0094 gel: wound closure; format: in vivo; settings: DFU patients; for % Wound Closure (Day 28): topically once daily for 28 days; for Median Number of Days to: 50% Closure / Median Number of Days to: 75% Closure: topically once daily
Procedure: (§1) MRE-0094 is administered to patients with neuropathic, diabetic foot ulcers (DFU). Patients 18-80 years old are randomized in a 1:3 ratio to a standard DFU care and a vehicle gel, or a standard DFU care and a gel containing MRE-0094 as described herein above. Standard care include routine sharp debridement, pressure offloading, and maintaining a moist wound environment. Inclusion criteria includes full thickness wounds between 1 and 10 cm^2 in area. Exclusion criteria includes arterial insufficiency, renal or hepatic insufficiency, active infection, or osteomyelitis. Patients are enrolled into 3 groups, and receive drug at an escalating concentration by group of 5 μg/g, 50 μg/g, or 500 μg/g. Safety data are reviewed by an independent safety board prior to escalating dose. Drug or vehicle is applied topically once daily for 28 days. Outcome measures include adverse events and other safety assessments, plasma concentrations of the active agent MRE-0094, percent of wound closure, and rate of wound closure. Thirty-six patients are randomized (25 active agent, 11 vehicle gel, i.e., placebo) with an average age of 54.8 years, 78% are male.

[8] = Phase I study: plasma concentrations of MRE-0094 (systemic absorption); format: in vivo, patients; settings: any topical dose concentration (5, 50, 500 μg/g gel)
Procedure: as §1

Weight lost upon desorption [1]: Approximately 3.7%
Solid material after moisture sorption identified by XRPD [1]: B-type crystal form
Moisture sorption: total weight gain [1]: approximately 3.9%
Hygroscopicity based on the moisture sorption data [1]: hygroscopic
Compound: Nc1nc(OCCc2ccc(Cl)cc2)nc2c1ncn2[C@@H]1O[C@H](CO)[C@@H](O)[C@H]1O [B-type crystal form, 2-[2-(4-chlorophenyl)ethoxy]adenosine]

Solid form after desolvation ([2]; heated at 60° C. for eight days or dried in vacuo for six days): convert to A-type crystal form
Compound: Nc1nc(OCCc2ccc(Cl)cc2)nc2c1ncn2[C@@H]1O[C@H](CO)[C@@H](O)[C@H]1O [C-type crystal form, 2-[2-(4-chlorophenyl)ethoxy]adenosine]
Solid form after exposure to ambient conditions [2]: does not completely convert to A-type crystals

Solid material after moisture sorption identified by XRPD [1]: A-type crystal form
Moisture sorption: total weight gain [1]: approximately 4.3%
Moisture sorption: weight gain ([1]; between 5 and 55% RH): approximately 0.3%
Moisture sorption: additional weight gain ([1]; between 55% and 95% RH): 4.0%
Hygroscopicity based on the moisture sorption data [1]: hygroscopic
solubility at 2 days [3]: < 71000 µg/mL
Temperature of solid form conversion in heat stress studies ([4]; isothermal heating, 2 min): approximately 164 °C
Temperature of conversion to B-type crystal form (VT-XRPD) ([4]; variable temperature XRPD): 120 °C
Temperature up to which the crystal form remains as such (VT-XRPD) ([4]; variable temperature XRPD): up to 115 °C
solubility ([5]; aqueous with cosolvent or surfactant or cyclodextrin, EtOH:water - 1:1, RT): 9000 µg/mL (≈ 21.3 mM)
solubility ([5]; aqueous with cosolvent or surfactant or cyclodextrin, water:PG - 1:1, RT): 6000 µg/mL (≈ 14.2 mM)
solubility ([5]; organic solvent or mixture, 1,4-dioxane, RT): 17000 µg/mL (≈ 40.3 mM)
solubility ([5]; organic solvent or mixture, ACN, RT): < 3000 µg/mL
solubility ([5]; organic solvent or mixture, DCM, RT): < 2000 µg/mL
solubility ([5]; organic solvent or mixture, DMF, RT): 179000 µg/mL (≈ 424 mM)
solubility ([5]; organic solvent or mixture, EtOAc, RT): < 4000 µg/mL
solubility ([5]; organic solvent or mixture, EtOH, RT): 7000 µg/mL (≈ 16.6 mM)
solubility ([5]; organic solvent or mixture, EtOH:water - 19:1, RT): 12000 µg/mL (≈ 28.4 mM)
solubility ([5]; organic solvent or mixture, IPA, RT): 4000 µg/mL (≈ 9.48 mM)
solubility ([5]; organic solvent or mixture, MEK, RT): 4000 µg/mL (≈ 9.48 mM)
solubility ([5]; organic solvent or mixture, MeOH, RT): 4000 µg/mL (≈ 9.48 mM)
solubility ([5]; organic solvent or mixture, TFE, RT): 11000 µg/mL (≈ 26.1 mM)
solubility ([5]; organic solvent or mixture, THF, RT): 23000 µg/mL (≈ 54.5 mM)
solubility ([5]; organic solvent or mixture, acetone, RT): 5000 µg/mL (≈ 11.9 mM)
solubility ([5]; organic solvent or mixture, heptane, RT): < 4000 µg/mL
solubility ([5]; organic solvent or mixture, toluene, RT): < 4000 µg/mL
solubility ([5]; water, RT): < 300 µg/mL
Compound: Nc1nc(OCCc2ccc(Cl)cc2)nc2c1ncn2[C@@H]1O[C@H](CO)[C@@H](O)[C@H]1O [A-type crystal form, 2-[2-(4-chlorophenyl)ethoxy]adenosine]

Compound: Nc1nc(OCCc2ccc(Cl)cc2)nc2c1ncn2[C@@H]1O[C@H](CO)[C@@H](O)[C@H]1O [I-type crystal form, 2-[2-(4-chlorophenyl)ethoxy]adenosine]
Solid form after dehydration ([2]; various drying conditions): either B-type, or a mixture of A-type and B-type crystals

Weight lost upon desorption [1]: Approximately 2.2%
Solid material after moisture sorption identified by XRPD [1]: G-type crystal form
Moisture sorption: total weight gain [1]: approximately 2.4%
Hygroscopicity based on the moisture sorption data [1]: hygroscopic
Stability to mechanical milling followed by vapor stress [6]: substantially stable
Compound: Nc1nc(OCCc2ccc(Cl)cc2)nc2c1ncn2[C@@H]1O[C@H](CO)[C@@H](O)[C@H]1O [G-type crystal form, 2-[2-(4-chlorophenyl)ethoxy]adenosine]

Systemic absorption of MRE-0094 [8]: No systemic absorption
Compound: Nc1nc(OCCc2ccc(Cl)cc2)nc2c1ncn2[C@@H]1O[C@H](CO)[C@@H](O)[C@H]1O [MRE-0094, 2-[2-(4-chlorophenyl)ethoxy]adenosine]
Wound healing of diabetic ulcers (diabetic ulcers): promote wound healing
% Wound Closure (Day 28) ([7]; 5 μg/g gel): 60.7%
Median Number of Days to: 50% Closure ([7]; 5 μg/g gel): 8 days
Median Number of Days to: 75% Closure ([7]; 5 μg/g gel): 14 days
% Wound Closure (Day 28) ([7]; 50 μg/g gel): 67.5%
Median Number of Days to: 50% Closure ([7]; 50 μg/g gel): 12 days
Median Number of Days to: 75% Closure ([7]; 50 μg/g gel): 28 days
% Wound Closure (Day 28) ([7]; 500 μg/g gel): 35.4%
Median Number of Days to: 50% Closure ([7]; 500 μg/g gel): 14 days
Median Number of Days to: 75% Closure ([7]; 500 μg/g gel): 36 days

Solid form after exposure to ambient conditions ([2]; listed as F-type crystals): Amorphous/low crystalline material
Compound: Nc1nc(OCCc2ccc(Cl)cc2)nc2c1ncn2[C@@H]1O[C@H](CO)[C@@H](O)[C@H]1O [F-type crystal form, 2-[2-(4-chlorophenyl)ethoxy]adenosine]
Solid form after desolvation ([2]; vacuum oven and 60° C.): low crystalline mixture of A-type and B-type crystals
